Reference: patent US20110294873A1, “Gene Transfer Vectors Comprising At Least One Isolated DNA Molecule Having Insulator Or Boundary Properties And Methods To Identify The Same” (UNIVERSITÉ DE LAUSANNE, priority 2008, published 2011)
“Also recorded” adds a separate entry of the source.

Key:
Type in all cases: cell-based, human
[1] = system: telomeric transgenes (GFP, DsRed) in HeLa cells; assay: Telomeric gene silencing quantitative assay (GFP/DsRed reporters, cytofluorometry); conditions: for transgene expression at telomeric positions: HeLa telomeric clones, agent in culture medium (TSA 1 μM 48 h, NaB 1 mM one week, 5azadC 3 μM 48 h, BrdU 50 μM one week)
Experimental: The minimal CMV promoter and EGFP and DsRed coding sequences (Clontech) were PCR amplified and cloned in both orientations in pBS-SK2 containing telomeric repeats, kindly provided by J. Baur (2). Puromycin resistance gene expressed from the CAG promoter was inserted upstream of DsRed, in a telomere-distal position. Four Gal4 binding site were introduced between EGFP and DsRed expression cassettes at AscI and BamHI restriction sites, yielding pGE1min-Gal and pGE2 min-Gal. Control plasmids were generated by deletion of the telomeric repeats. Plasmids encoding the Gal DNA binding domain alone (pCD-Gal-DBD), or fused to the CTF1 Proline rich (pCMV-Gal-Pro) or to the VP16 (pCMV-Gal-VP16) transcriptional activation domains were as described previously (31). Plasmids encoding Gal-CTF1 fusion mutations were previously described by Alevizopoulos et al. (1995). Plasmids used to generate stable populations expressing Gal4 derivatives were obtained by cloning Gal-fusion genes or the BFP gene in an expression vector carrying the MAR 1-68 and the SV40 promoter (15).
HeLa cells (Clontech) were cultivated at 37° C. and 5% CO2 in DMEM-F12 with 10% fetal bovine serum (Gibco). Histone deacetylation or DNA methylation studies were performed by supplementing the cell culture medium with either 1 μM of Trichostatin A (TSA, Wako) for 48 h, 1 mM of Sodium butyrate (Sigma) for one week, 3 μM of 5-aza-2′-deoxycytidine (5azadC, Sigma) for 48 h, or 50 μM of Bromo-deoxyuridine (BrdU, Applichem) for one week. Transfections were performed using the Fugene 6 transfection reagent following instructions from the manufacturer (Roche). Stable clones were obtained by transfection of linearized plasmids pGEmin-Gal, pGE2 min-Gal or their respective controls. Cells were selected with 2 μg/mL of puromycin for three weeks, and all analyses were performed at least two weeks after the end of selection, to allow for the silencing of the telomeric locus. Transient transfections were performed by co-transfection of a Gal-fusion encoding plasmid and a BFP encoding plasmid at a molar ratio of 9:1. Cytofluorometric assays of the fluorescent reporter proteins were performed 48 h later. Stable populations expressing Gal-DBD/Gal-Pro were obtained by co-transfecting the Gal-fusion expression plasmid, a BFP-encoding plasmid, and a Zeocin resistance plasmid at 45:45:10 weight ratio. Zeocin resistant cells displaying high BFP levels were sorted twice, and the amount of zeocin was increased to 1800 μg/mL with increments of 200 μg/mL, to ensure consistent and elevated levels of fusion protein expression. Fluorescence in situ hybridization (FISH) was performed as described previously (12, 15) using two colors labeling of the reporter plasmids and of the telomeric repeats.
In order to analyze both telomere-insulated and non-insulated genes co-integrated at the same telomeric locus, we generated the reporter plasmids shown in FIG. 17A. Reporter vectors consist of the green fluorescent protein (GFP) and red fluorescent protein (DsRed) coding sequences placed on either side of four DNA binding sites for the yeast GAL4 protein. Each reporter gene was placed under the control of a minimal CMV promoter, in an orientation mediating either convergent or divergent directions of transcription. An antibiotic resistance gene was placed adjacent to DsRed, while telomeric (TTAGGG)n repeats were placed next to the GFP expression cassette. […] These constructs were transfected, and antibiotic-resistant cells having stably integrated the transgenes in their genome were selected and sorted into monoclonal populations. […] Fluorescence in situ hybridization (FISH) analysis indicated a telomeric or subtelomeric transgene position for all retained clones (see FIG. 6 in the supplemental material). […]

[2] = system: histones H3, H4, H2A.Z on GFP and DsRed sequences in HeLa clones; assay: Chromatin immunoprecipitation of histone modifications on telomeric transgenes; conditions: clone B09
Experimental: Antibodies against acetylated H3 (06-599), acetylated H4 (06-866) and trimethylated H3K9 (07-442) were obtained from Upstate biotechnology. Antibody against H2A.Z (ab4174) was purchased from Abcam. HeLa cells were harvested at a confluence of 90% and cross-linked with 1% formaldehyde for 4 min. After lysis of the nuclei, chromatin was sonicated to obtain fragments of ˜1000 pb and digested with BamHI. The chromatin solution was diluted to a volume of 300 μL in a buffer containing 200 mM HEPES, 2M NaCl, 20 mM EDTA, 0.1% NaDoc, 1% Triton X-100, 1 mg/mL BSA. Chromatin fragments were precleared 30 min with 10 μL rProtein A Sepharose (Amersham Biosciences) and supernatants were incubated at 4° C. overnight with 5 μL of antibody. Immunoprecipitated complexes were incubated with 10 μL rProtein A Sepharose and pellets were washed 3 times with IP buffer (20 mM HEPES, 0.2M NaCl, 2 mM EDTA, 0.1% NaDoc, 1% Triton X-100). Immunoprecipitated complexes were eluted in 100 mM Tris/HCl, 1% SDS and cross-links were reversed at 65° C. for 1 hour. Precipitated DNAs were eluted in 50 μL TE.
Quantitative PCR was performed on 7700 Sequence detector (Applied Biosystems) using SYBR Green reagent (Eurogentec). Chromatin immuno-precipitation samples and chromatin input were diluted 10 fold before analysis. […]

[3] = system: Fr-MuLV LTR enhancer acting on GFP gene in HeLa cells; assay: Quantitative double-reporter (BFP/GFP) enhancer-blocking assay, transient transfection; conditions: HeLa transient, 48 hours, GFP/BFP ratio, compared to full-length cHS4
From the text: Panel A is a schematic illustration of the retroviral-mediated integration of a transgene expression cassette into a host cell genome upon viral infection. This cassette contains a transgene under the control of a retroviral LTR and is flanked by a genetic insulator element shielding a cellular gene at the site of integration from LTR-mediated up-regulation. In order to mimic events leading to gene transfer-mediated insertional activation in a plasmid-based assay system (B), plasmid constructs were designed containing a BFP gene under the control of a viral LTR enhancer-promoter and a GFP gene under the control of a minimal CMV promoter (P). Inserting a potent insulator in between the two reporter genes should prevent the expression over-activation of the GFP gene without affecting the BFP expression, as it should shield cellular gene from up-regulation at the site of integration of a viral vector without interfering with transgene expression. In addition, in order to insulate the whole construct itself either from the viral enhancer bi-directional activation in transient transfection (circular form of the plasmid) or from a neighboring cellular enhancer at the site of integration in stable transfection (integrated linearized form of the plasmid), a copy of the cHS4 insulator is inserted at the edge of the reporter gene expression cassettes
The plasmid constructs described in FIG. 26B were obtained as follows. The EGFP gene expressed from a minimal CMV promoter was PCR amplified from a pcDNA3-EGFP plasmid excluding the CMV enhancer. The EBFP gene was PCR amplified from the pEBFP-NI plasmid (Clontech). Both reporters were subcloned in a pBS2-SKP (Stratagene). The Fr-MuLV LTR was inserted upstream from the EBFP gene such that transcription from the LTR is directed towards EBFP, and a copy of the 1.2 kb cHS4 was inserted downstream from the EGFP gene. Insulator sequences were inserted between the Fr-MuLV LTR and the minimal CMV promoter driving GFP expression. The 250 bp cHS4 core was PCR amplified from the full-length cHS4 (GenBank accession number: U78775.2, amplification from position 1 to 250). A series of neutral DNA spacers of various lengths were PCR amplified from the mouse utrophin cDNA (GenBank accession number: BC062163.1, amplifications form position 355 to positions 605 and 1555).
HeLa cells were transfected using FuGENE 6 reagent (Roche Diagnostics) according to the manufacturer's recommendations. Equimolar amounts of the different plasmids were transfected in each experiment (using the pBS2-SKP backbone plasmid as carrier). Circular plasmids were used for transient transfections, while plasmids were linearized before stable transfections. To obtain stable populations, the reporter constructs were co-transfected with a puromycin resistance-encoding plasmid (pPUR, Clontech) with a molar ratio of 10:1 and cells were grown in Dulbecco's modified Eagle medium containing 10% fetal bovine serum and 0.5 μg/mL puromycin (all from GIBCO). Fluorescence analyses were acquired on the FACS Cyan (Dakocytomation) with the settings of 450 V on the SSC channel, 340 V for the GFP and 450 V for the BFP. Data analysis of the double-reporter assay consisted in normalizing the GFP fluorescence to the BFP fluorescence for each cell and averaging these values over the total cell population. FACS analyses were performed 48 hours after transfection for transient expression and after 2 to 3 weeks of selection post-transfection for stable expression. Data processing was performed using the FlowJo software.
Therefore, we designed a two-reporter gene assay whereby the potency of enhancer-blocker insulators can be quantified, and in which polar insulating activities can be distinguished from enhancer inhibition or from global gene silencing effects. […]

Row | Molecule | transgene expression at telomeric positions [1] | enhancer-blocking (insulator) activity [3] | further results
1 | Nc1ncn([C@H]2C[C@H](O)[C@@H](CO)O2)c(=O)n1 [5azadC, 5-aza-2′-deoxycytidine] | little effect on transgene expression |  | 
2 | O=c1[nH]c(=O)n([C@H]2C[C@H](O)[C@@H](CO)O2)cc1Br [BrdU, Bromo-deoxyuridine] | increase in expression of the reporter genes, but to a lesser extent than that noted with TSA |  | 
3 | CCCC(=O)[O-].[Na+] [NaB, Sodium butyrate] | lower unsilencing effects in some clones |  | telomeric gene expression ([1]; clone D17): little effect on telomeric gene expression
4 | CC(/C=C/C(=O)NO)=C\[C@@H](C)C(=O)c1ccc(N(C)C)cc1 [TSA, Trichostatin A] | strongly increase transgene expression |  | H3K9Me3 on DsRed and GFP sequences (ChIP) [2]: increase; H3 and H4 acetylation on DsRed and GFP sequences (ChIP) [2]: increase of the acetylation of both DsRed and GFP
5 | CTF1: native transcription factor of the CTF/NF1 family, transiently expressed |  |  | reporter gene activation upon transient CTF1 expression ([1]; reporter with seven CTF/NF1 binding sites, internal chromosomal location): commensurate activation occurred for both reporter genes; boundary effect upon transient CTF1 expression ([1]; reporter with seven CTF/NF1 binding sites, telomeric transgenes): boundary effect was observed
6 | One binding site (20 bp element): single CTF/NF1 binding site from adenovirus type II origin of replication, 20 bp (DNA TTGGCAACGTGCCATAAGCA; listed as DNA, chemistry not given here) |  | responsible for most of the effect | enhancer-blocking (insulator) activity ([3]; listed as single binding site of 20 bp): approximately half of the insulating effect seen with the full-length cHS4
7 | CTCF cons: 6 repeats of the consensus CTCF binding site separated by random linkers (nucleic acid, CTCF consensus binding sites) DNA: GCGATGCCGCCCCCTGGTGGCCAGTAATCGCAAGGCTAAGTAATCACTGCCCCCTGGTGGCCGCCAGTCTGATACGCGTTTTACAACCGCCCCCTGGTGGCCGTGGGAGACATCTAGTGCACGAGAGTGCCCCCTGGTGGCCAAACCGTAGCCTAGGCATATTGTACTGCCCCCTGGTGGCCGGCAATATGGCTAGCGATGACTCGGCGCCCCCTGGTGGCCACTACGTTCTAGTG |  | already showed significant activity | enhancer-blocking (insulator) activity ([3]; listed as Consensus binding sites for CTCF): able to show the same activity, with no significant improvement
8 | 12×CTCF: 12 copies of consensus CTCF binding sites with random spacers, 472 bp (nucleic acid, Consensus binding sites for CTCF (12copies)) DNA: GCGATGCCGCCCCCTGGTGGCCAGTAATCGCAAGGCTAAGTAATCACTGCCCCCTGGTGGCCGCCAGTCTGATACGCGTTTTACAACCGCCCCCTGGTGGCCGTGGGAGACATCTAGTGCACGAGAGTGCCCCCTGGTGGCCAAACCGTAGCCTAGGCATATTGTACTGCCCCCTGGTGGCCGGCAATATGGCTAGCGATGACTCGGCGCCCCCTGGTGGCCACTACGTTCTAGTGGCGATGCCGCCCCCTGGTGGCCAGTAATCGCAAGGCTAAGTAATCACTGCCCCCTGGTGGCCGCCAGTCTGATACGCGTTTTACAACCGCCCCCTGGTGGCCGTGGGAGACATCTAGTGCACGAGAGTGCCCCCTGGTGGCCAAACCGTAGCCTAGGCATATTGTACTGCCCCCTGGTGGCCGGCAATATGGCTAGCGATGACTCGGCGCCCCCTGGTGGCCACTACGTTCTAGTG |  | as potent as the complete 1.2 kb cHS4 element; also recorded: comparable to the one of the full length cHS4; also recorded: fully reproduced the insulation effect; also recorded: able to reconstitute the enhancer blocking activity mediated by the full-length 1.2 kb cHS4 | 
